The target of assay [1] is T1, human recombinant adrenergic α2B receptor (Homo sapiens, UniProt P18089).
T1 construct: expressed in transfected cells; host or cells: CHO-K1
T1 sequence (P18089 1-450): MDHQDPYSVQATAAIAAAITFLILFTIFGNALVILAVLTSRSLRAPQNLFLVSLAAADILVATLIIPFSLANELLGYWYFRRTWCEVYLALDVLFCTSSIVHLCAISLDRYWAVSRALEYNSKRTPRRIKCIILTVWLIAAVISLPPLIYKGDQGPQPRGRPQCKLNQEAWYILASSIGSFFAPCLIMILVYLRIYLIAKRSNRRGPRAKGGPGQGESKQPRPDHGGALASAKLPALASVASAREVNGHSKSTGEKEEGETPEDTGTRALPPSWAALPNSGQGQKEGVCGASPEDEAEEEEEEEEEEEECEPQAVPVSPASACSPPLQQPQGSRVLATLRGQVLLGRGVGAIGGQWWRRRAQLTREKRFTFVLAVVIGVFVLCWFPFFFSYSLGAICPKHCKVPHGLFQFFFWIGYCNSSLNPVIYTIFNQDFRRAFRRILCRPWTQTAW
Briefly: Radioligand binding, adrenergic α2B ([3H]Rauwolscine). Particulars: for Percentage inhibition of ligand binding, Adrenergic α2B (0.03 μM): compound at 0.03 μM; for Percentage inhibition of ligand binding, Adrenergic α2B: 0.03 μM compound. As for the experimental part:
To evaluate in radioligand binding assays the activity of compounds of the invention, human recombinant adrenergic α2B receptor expressed in Chinese hamster ovary (CHO) K1 cells (Uhlen, S. et al, Eur. J. Pharmacol. 343(1):93, 1998) in a modified Tris-HCl buffer (50 mM Tris-HCl, pH 7.4, 12.5 mM MgCl2, 1 mM EDTA, 0.2% BSA) was used. Compounds of the invention were incubated with 2.5 nM [3H]Rauwolscine for 60 min at 25° C. Non-specific binding was estimated in the presence of 10 μM Prazosin. Receptor proteins were filtered and washed, the filters were then counted to determine [3H]Rauwolscine specifically bound. […] Compounds of the invention were tested in this biochemical assay and percent inhibition of specific binding was determined. Biochemical assay results are presented as the percent inhibition of specific binding in Table B1.

The target of assay [2] is T2, human recombinant adrenergic α2A receptor (Homo sapiens, UniProt P08913).
T2 construct: expressed in transfected cells; host or cells: insect Sf9 cells
T2 sequence (P08913 1-465): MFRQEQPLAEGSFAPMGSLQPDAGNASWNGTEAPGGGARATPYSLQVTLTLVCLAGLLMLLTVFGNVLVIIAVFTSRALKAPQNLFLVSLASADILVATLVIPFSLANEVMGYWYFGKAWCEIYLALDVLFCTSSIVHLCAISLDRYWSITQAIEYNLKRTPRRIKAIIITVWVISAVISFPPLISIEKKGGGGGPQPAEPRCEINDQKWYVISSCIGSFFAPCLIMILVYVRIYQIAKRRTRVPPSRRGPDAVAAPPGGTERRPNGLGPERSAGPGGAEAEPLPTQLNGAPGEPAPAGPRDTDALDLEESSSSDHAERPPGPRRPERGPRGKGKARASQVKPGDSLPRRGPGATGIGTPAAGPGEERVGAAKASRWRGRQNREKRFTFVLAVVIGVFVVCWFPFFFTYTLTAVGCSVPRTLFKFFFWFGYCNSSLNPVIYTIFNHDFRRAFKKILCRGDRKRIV
Briefly: Radioligand binding, adrenergic α2A ([3H]MK-912). Particulars: [3H]MK-912, repeat datapoints each shown; for Percentage inhibition of ligand binding, Adrenergic α2A (0.1 μM): compound at 0.1 μM. The method, then: To evaluate in radioligand binding assays the activity of compounds of the invention, human recombinant adrenergic α2A receptor expressed in insect Sf9 cells (Uhlen, S. et al, J. Pharmacol. Exp. Ther. 271:1558, 1994) in a modified Tris-HCl buffer (50 mM Tris-HCl, pH 7.4, 12.5 mM MgCl2, 2 mM EDTA) was used. Compounds of invention were incubated with 1 nM [^3H]MK-912 for 60 min at 25° C. MK912 is (2S-trans)-1,3,4,5′,6,6′,7,12b-octahydro-1′,3′-dimethyl-spiro[2H-benzofuro[2,3-a]quinolizine-2,4′(1′H)-pyrimidin]-2′(3′H)-one hydrochloride. Non-specific binding was estimated in the presence of 10 μM WB-4101 (2-(2,6-Dimethoxyphenoxyethyl)aminomethyl-1,4-benzodioxane hydrochloride). Receptor proteins were filtered and washed, the filters were then counted to determine [^3H]MK-912 specifically bound. […] Compounds of the invention were tested in this biochemical assay and percent inhibition of specific binding was determined. Biochemical assay results are presented as the percent inhibition of specific binding in Table B1.

Assay [3] deals with T3, rat adrenergic α1B receptor (Rattus norvegicus, UniProt P15823).
T3 construct: rat adrenergic α1B receptor obtained from Wistar Rat liver; from tissue; host or cells: Wistar rat liver
T3 sequence (P15823 1-515): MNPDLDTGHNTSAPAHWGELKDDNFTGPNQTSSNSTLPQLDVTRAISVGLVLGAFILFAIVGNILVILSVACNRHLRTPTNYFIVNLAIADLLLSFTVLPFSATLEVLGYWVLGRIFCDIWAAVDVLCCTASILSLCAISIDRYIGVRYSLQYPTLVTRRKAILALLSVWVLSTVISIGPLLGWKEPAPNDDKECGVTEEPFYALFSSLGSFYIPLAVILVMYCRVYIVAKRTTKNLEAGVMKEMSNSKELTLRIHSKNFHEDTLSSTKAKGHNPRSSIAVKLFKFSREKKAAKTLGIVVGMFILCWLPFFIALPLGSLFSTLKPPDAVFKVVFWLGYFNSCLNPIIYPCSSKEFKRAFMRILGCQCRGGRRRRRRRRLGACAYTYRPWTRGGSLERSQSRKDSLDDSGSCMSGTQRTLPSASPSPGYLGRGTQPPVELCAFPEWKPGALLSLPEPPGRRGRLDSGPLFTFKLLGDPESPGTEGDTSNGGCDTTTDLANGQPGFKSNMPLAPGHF
Briefly: Radioligand binding, adrenergic α1B ([3H]Prazosin). On the set-up: species or system Wistar Rat. Particulars: for Percentage inhibition of ligand binding, Adrenergic α1B (0.1 μM): compound at 0.1 μM; for Percentage inhibition of ligand binding, Adrenergic α1B: 0.1 μM compound. As for the experimental part:
To evaluate in radioligand binding assays the activity of compounds of the invention, rat adrenergic α1B receptor obtained from Wistar Rat liver (Garcia-S'ainz, J. et al, Biochem. Biophys. Res. Commun. 186:760, 1992; Michel, A. et al, Br. J. Pharmacol. 98:883, 1989) in a modified Tris-HCl buffer (50 mM Tris-HCl buffer, pH 7.4, 0.5 mM EDTA) was used. Compounds of the invention were incubated with 0.25 nM [^3H]Prazosin for 60 min at 25° C. Non-specific binding was estimated in the presence of 10 μM phentolamine. Receptor proteins were filtered and washed, the filters were then counted to determine [^3H]Prazosin specifically bound. […] Compounds of the invention were tested in this biochemical assay and percent inhibition of specific binding was determined. Biochemical assay results are presented as the percent inhibition of specific binding in Table B1.

Setting [4] is: repeat datapoints each shown, 0.03 µM.
The mark [5] stands for this setting: repeat datapoints each shown, 0.1 µM.

SMILES strings stand for the structures. Several values for one entry are separate records, joined by “and”; a condition that tells them apart may be missing. Identical values can stand only once.

Consider `Cc1ccc2c(c1)c1c(n2CC(O)c2ccncc2)CC2CCCCN2C1` (racemic) [75a], for which the “Percentage inhibition of ligand binding, Adrenergic α2B (0.03 μM)” value in assay [1] (setting [4]) is on record as 77%. Moreover, the “Percentage inhibition of ligand binding, Adrenergic α2A (0.1 μM)” value in assay [2] is 11%. Besides, in assay [3] (setting [5]), the “Percentage inhibition of ligand binding, Adrenergic α1B (0.1 μM)” value was 61%.
As to `Cc1ccc2c(c1)c1c(n2CC(O)c2ccncc2)CC2CCCCN2C1` (racemic) [75b], the “Percentage inhibition of ligand binding, Adrenergic α2B (0.03 μM)” value in assay [1] (setting [4]) came out at 43%. Further, the “Percentage inhibition of ligand binding, Adrenergic α2A (0.1 μM)” value in assay [2] is 5%. For the same compound, the “Percentage inhibition of ligand binding, Adrenergic α1B (0.1 μM)” value in assay [3] (setting [5]) is recorded as 16%.
Taken in the same sequence, the figures for `Cc1ccc2c(c1)c1c(n2CC(O)c2ccncc2)CC2CCCCN2C1` (racemic) [75c] were 11%, −2% and 59%.
Taken in the same sequence, the figures for `Cc1ccc2c(c1)c1c(n2CC(O)c2ccncc2)CC2CCCCN2C1` (racemic) [75d] were 102%, 49% and 26%.
`CN1CCc2c(c3cc(Cl)ccc3n2CC(O)c2ccncc2)C1` (single isomer, unassigned) [4a]: in assay [1] (setting [4]), the “Percentage inhibition of ligand binding, Adrenergic α2B (0.03 μM)” value was 99% and 103%. Besides, the “Percentage inhibition of ligand binding, Adrenergic α2B (0.1 μM)” value in assay [1] (compound at 0.1 μM, repeat datapoints each shown, 0.1 µM) came to 104%. In assay [2] (compound at 0.03 μM), the “Percentage inhibition of ligand binding, Adrenergic α2A (0.03 μM)” value stood at 5%. The “Percentage inhibition of ligand binding, Adrenergic α2A (0.1 μM)” value in assay [2] was 19% and 24%. In addition, in assay [3] (compound at 0.03 μM, repeat datapoints each shown), the “Percentage inhibition of ligand binding, Adrenergic α1B (0.03 μM)” value came out at 25%. For the same compound, the “Percentage inhibition of ligand binding, Adrenergic α1B (0.1 μM)” value in assay [3] (setting [5]) was 52% and 57%.
As for `CN1CCc2c(c3cc(Cl)ccc3n2CC(O)c2ccncc2)C1` (single isomer, unassigned) [4b], the “Percentage inhibition of ligand binding, Adrenergic α2B (0.03 μM)” value in assay [1] (setting [4]) is 46%. Besides, the “Percentage inhibition of ligand binding, Adrenergic α2A (0.1 μM)” value in assay [2] was 7%. The “Percentage inhibition of ligand binding, Adrenergic α1B (0.1 μM)” value in assay [3] (setting [5]) is 58%.
Taken in the same sequence, the figures for `CN1CCc2c(c3cc(Cl)ccc3n2CC(O)c2cccnc2)C1` (single isomer, unassigned) [7a] were 59%, 1% and 28%.
Consider `CN1CCc2c(c3cc(Cl)ccc3n2CC(O)c2cccnc2)C1` (single isomer, unassigned) [7b], for which the “Percentage inhibition of ligand binding, Adrenergic α2B (0.03 μM)” value in assay [1] (setting [4]) was 74%. Moreover, the “Percentage inhibition of ligand binding, Adrenergic α2A (0.1 μM)” value in assay [2] was determined as 25%. The “Percentage inhibition of ligand binding, Adrenergic α1B (0.1 μM)” value in assay [3] (setting [5]) is 37%.
The corresponding values for `Cc1ccc2c(c1)c1c(n2CC(O)c2cccnc2)CCN(CCO)C1` (single isomer, unassigned) [21a] are −2%, −1% and 5%.
The corresponding values for `Cc1ccc2c(c1)c1c(n2CC(O)c2cccnc2)CCN(CCO)C1` (single isomer, unassigned) [21b] are 1%, −3% and −2%.
The corresponding values for `Cc1ccc2c(c1)c1c(n2CC(O)c2ccccn2)CN(C)CC1` (single isomer, unassigned) [22a] are 22%, 16% and 19%.
`Cc1ccc2c(c1)c1c(n2CC(O)c2ccccn2)CN(C)CC1` (single isomer, unassigned) [22b]: in assay [1] (setting [4]), the “Percentage inhibition of ligand binding, Adrenergic α2B (0.03 μM)” value stood at 30%. Also, the “Percentage inhibition of ligand binding, Adrenergic α2A (0.1 μM)” value in assay [2] was 0%. Besides, the “Percentage inhibition of ligand binding, Adrenergic α1B (0.1 μM)” value in assay [3] (setting [5]) came out at 9%.
On to `Cc1ccc2c(c1)c1c(n2CC(C)(O)c2cccnc2)CCNC1` (single isomer, unassigned) [24a], for which the “Percentage inhibition of ligand binding, Adrenergic α2B (0.03 μM)” value in assay [1] (setting [4]) is given as 63%. In assay [2], the “Percentage inhibition of ligand binding, Adrenergic α2A (0.1 μM)” value is reported as 8%. Also, the “Percentage inhibition of ligand binding, Adrenergic α1B (0.1 μM)” value in assay [3] (repeat datapoints each shown) was determined as 8%.
Regarding `Cc1ccc2c(c1)c1c(n2CC(C)(O)c2cccnc2)CCNC1` (single isomer, unassigned) [24b], the “Percentage inhibition of ligand binding, Adrenergic α2B (0.03 μM)” value in assay [1] (setting [4]) is on record as 29%. The “Percentage inhibition of ligand binding, Adrenergic α2A (0.1 μM)” value in assay [2] was 15%. Further, the “Percentage inhibition of ligand binding, Adrenergic α1B (0.1 μM)” value in assay [3] (repeat datapoints each shown) is 8%.
Take `Cc1ccc(CCn2c3c(c4cc(Cl)cnc42)C2CCCN2CC3)cn1` (single isomer, unassigned) [137a]: in assay [1] (0.03 µM), the “Percentage inhibition of ligand binding, Adrenergic α2B” value turned out to be 104%. Also, in assay [3] (0.1 µM), the “Percentage inhibition of ligand binding, Adrenergic α1B” value is reported as 94%.
The corresponding values for `Cc1cnc2c(c1)c1c(n2CC(N)c2ccc(C#N)cc2)CCN(C)C1` (single isomer, unassigned) [159a] are 37% and −2%.
Consider `Cc1ccc2c(c1)c1c(n2CC(O)c2ccc(C#N)cc2)CCN(C)C1` (centres unmarked) [142a], for which the “Percentage inhibition of ligand binding, Adrenergic α2B” value in assay [1] was determined as 71%. Moreover, the “Percentage inhibition of ligand binding, Adrenergic α1B” value in assay [3] is given as 68%.
With `Cc1ccc2c(c1)c1c(n2CC(C)(O)c2ccc(C)nc2)CN(C)CC1` (centres unmarked) [196b], in assay [1] (0.03 µM), the “Percentage inhibition of ligand binding, Adrenergic α2B” value is listed as −2%. Moreover, the “Percentage inhibition of ligand binding, Adrenergic α1B” value in assay [3] (0.1 µM) stood at 37%.

Source of the values: patent US9550782B2, “Compounds and methods for treating diabetes” (Medivation Technologies, Inc., priority 2011, dated 2017).
